Reference: article PMC11513920, “Building Metabolically Stable and Potent Anti-HIV Thioether-Lipid Analogues of Tenofovir Exalidex: A thorough Pharmacological Analysis” (Journal of Medicinal Chemistry, 2024)
Read-outs that look alike come from different tables or passages of the source.

Tests used:
HEK293T cells = test: Cellular cytotoxicity (cell viability, CellTiter 96 or resazurin); conditions: HEK293T cells, 48 h, compounds formulated with HSA (5:1)
Description: (§1) Second, HIV IC50 and cellular CC50 were determined with a pseudoviral, whole (HEK293T) cell, nonreplicative HIV assay, using the HIV-1 subtype C strain MJ4 (refer to Experimental Methods). To account for the unique amphiphilic properties of TXL and the novel HTP-based prodrugs, all compounds were formulated in a human serum albumin (HSA) solution (5:1 drug:protein).
(§2) Assessment of cytotoxicity and antiviral activity of all final compounds in vitro was conducted according to previously reported procedures.[39] In summary, human embryonic kidney (HEK293T) cells maintained in high glucose (25 mM), Dulbecco’s modified Eagle’s medium (DMEM) supplemented with fetal bovine serum (10%), sodium pyruvate (1 mM), L-glutamine (2 mM), HEPES (25 mM), and gentamicin (50 μg/mL) were used for determinations. The cells were maintained in an incubator at 37 °C under 5% CO2 in a humidified atmosphere. For both cytotoxicity and antiviral screening, all compounds were evaluated in duplicate in at least two independent experiments. All final compounds were formulated with human serum albumin (HSA, 5:1 compound to HSA molar ratio) and subsequently diluted with complete DMEM to 200 μM. Fifty microliters of test compound serial dilutions (3-fold) were prepared in 96-well culture plates, after which 50 μL of HEK293T cells (2 × 10^4 cells/well) was added. […] Cytotoxicity was then assessed by quantifying cell viability using the CellTiter 96 Aqueous One Solution Cell Proliferation Assay (Promega, Madison, WI) or resazurin sodium salt (cat# R7017, Merck, Darmstadt, Germany).[61] […] Antiviral activity was then assessed using a single-cycle, nonreplicating, envelope deleted HIV pseudoviral in vitro assay.[62],[63] The assay relies on the introduction of the firefly luciferase gene into HEK293T cells through infection with HIV-like viral particles, containing Reverse Transcriptase (RT) and Integrase (IN) from the HIV-1 subtype C strain MJ4.[64] The expression of the luciferase in the cells is directly proportional to the level of infection by the HIV-like viral particles and can be used to assess the inhibition of HIV-1 RT and IN. To evaluate anti-HIV activity, 3-fold serial dilutions of all final compounds were prepared in 50 μL over the noncytotoxic concentration range (as determined from the cytotoxicity screens described above) in 96-well culture plates. HEK293T cells (2 × 10^4 cells/well) and HIV-like viral particles, standardized to produce a luminescence signal of 1 × 10^6 relative light units (RLUs) in the growth medium only control, were combined, and 50 μL was added to the wells containing serially diluted test compounds. […] The expression of luciferase was subsequently quantified by adding 100 μL of the Bright-Glo Luciferase Assay substrate (Promega, Madison, WI) to each well of the 96-well plates. After incubation at rt for 3 min, luminescence was quantified on the GloMax Explorer Multimode Microplate Reader (Promega, Madison, WI).

[1] = Mouse tissue (liver, kidney, brain) pharmacokinetics after oral dose; format: in vivo, male C57BL/6 mice; conditions: for TFV in brain tissue: brain, 1, 4 and 24 h after p.o. 10 mg/kg of prodrug, LLOQ 4.84 ng/mL (9.67 for 16h); for AUC(0-t) at 24 h: read-out: AUC0–24h; for concentration at 24 h / mean prodrug concentration in brain: 24 h; for mean prodrug concentration in brain: BLQ = below limit of quantitation
Description: To compare the in vivo PK profiles to TXL and our previously reported drug lead 1 (Tables S19 and S26),[39] one group of male C57BL/6 mice were administered a single oral dose (p.o., 10 mg/kg) of 2a, 16g, or 16h (refer to Experimental Methods). Additionally, a separate group of mice were given a single intravenous dose (i.v., 3 mg/kg) of each prodrug to obtain plasma clearance (Cl), volume of distribution (Vd), and oral bioavailability data. Blood was sampled at 8 time points over 8 h (i.v.) or 24 h (p.o.) postdose, and plasma was isolated via centrifugation. Tissues (liver, kidney, and brain) were also harvested and homogenized at 3 time points over 24 h after oral dose. The concentrations of prodrug and TFV metabolite in each of these samples was then quantified using LC–MS/MS methodology.
Healthy male C57BL/6 mice (8–12 weeks old) weighing 20–30 g were procured from Global, India. Three mice were housed in each cage. Temperature and humidity were maintained at 22 ± 3 °C and 30–70%, respectively, and illumination was controlled to provide for 12 h light and 12 h dark cycles. Temperature and humidity were recorded by an autocontrolled data logger system. All animals were provided a laboratory rodent diet (Envigo Research private Ltd., Hyderabad). Reverse osmosis H2O treated with ultraviolet light was provided ad libitum.
Male mice were divided into two groups (n = 18 total, n = 9 per treatment group, n = 3 per time point, sparse sampling). One group was intravenously administered a solution of 2a, 16g, and 16h in 10% PEG-300, 10% Solutol HS-15, and 80% saline at 3 mg/kg with a dosing volume of 5 mL/kg. The second group was administered a solution of 2a, 16g, and 16h in 10% EtOH and 90% olive oil at 10 mg/kg via oral gavage with a dosing volume of 10 mL/kg.
Blood samples (approximately 60 μL) were collected from retro-orbital plexus under light isoflurane anesthesia such that the samples were obtained predose, as well as at eight time points post dose: 0.1, 0.25, 0.5, 1, 2, 4, 6, and 8 (i.v.) and 0.25, 0.5, 1, 2, 4, 8, 12, and 24 h (p.o.). Immediately after blood collection, plasma samples were harvested by centrifugation at 4000 rpm and 4 °C for 10 min and stored at −70 °C until LC–MS/MS analysis. Following blood collection from p.o. group, liver, kidney, and brain samples were collected (n = 3 per treatment group per time point) at 1, 4, and 24 h post dose. After isolation, tissue samples were rinsed three times with ice-cold saline and dried with blotting paper. Next, the tissue samples were homogenized using ice-cold PBS (pH = 7.4), and the resulting homogenates were stored below −70 °C until LC-MS/MS analysis. The total homogenate volume was 3 times the brain weight and 5 times the liver and kidney weight.
Areas under the concentration–time curves (AUC0–8h and AUC0–24h) were calculated via the linear trapezoidal rule[65] using GraphPad Prism v9. Furthermore, terminal elimination rate constants k were determined using linear regression (slope = −k) of the terminal portion of semilog-transformed concentration–time curves (Figures S44, S45, S47, S48, S50, and S51).

HepaRG cells = test: HepaRG cellular metabolic stability; conditions: for HepaRG t1/2: after 3 h loading at 20 μM, 37 °C
[2] = test system: HIV-1 subtype C strain MJ4; test: Single-cycle non-replicating HIV pseudoviral luciferase assay in HEK293T cells; conditions: Human immunodeficiency virus 1, HEK-293T, read-out: HIV IC50
Description: as §1, §2

[3] = male, C57BL/6, mouse, brain, po, p.o. 10 mg/kg, read-out: mean prodrug concentration in brain
[4] = male, C57BL/6, mouse, kidney, po, p.o. 10 mg/kg, read-out: mean prodrug concentration in kidney
[5] = male, C57BL/6, mouse, liver, po, p.o. 10 mg/kg, read-out: mean prodrug concentration in liver
[6] = male, C57BL/6, mouse, po, brain, prodrug, p.o. 10 mg/kg
[7] = male, C57BL/6, mouse, po, kidney, prodrug, p.o. 10 mg/kg
[8] = male, C57BL/6, mouse, po, liver, prodrug, p.o. 10 mg/kg

Compound: CCCCCCCCCCCCCCCCSCCCOP(=O)(O)CO[C@H](C)Cn1cnc2c(N)ncnc21.N [2a]
- CC50 (HEK293T cells): 49.8 ± 2.9 µM
- TFV in brain tissue [1]: BLQ
- concentration at 1 h [1, 3]: 0.0438 µg/mL
- concentration at 4 h [1, 3]: 0.00219 µg/mL
- concentration at 1 h [1, 4]: 0.581 µg/mL
- concentration at 4 h [1, 4]: 0.385 µg/mL
- concentration at 24 h [1, 4]: 0.0444 µg/mL
- concentration at 1 h [1, 5]: 1.25 µg/mL
- concentration at 4 h [1, 5]: 0.395 µg/mL
- concentration at 24 h [1, 5]: 0.00395 µg/mL
- Cmax at 24 h [1, 6]: 0.0438 µg/mL
- Tmax [1, 6]: 1 h
- AUC(0-t) at 24 h [1, 6]: 0.069 µg·h/mL
- Cmax at 24 h [1, 7]: 0.581 µg/mL
- Tmax [1, 7]: 1 h
- AUC(0-t) at 24 h [1, 7]: 5.74 µg·h/mL
- Cmax at 24 h [1, 8]: 1.25 µg/mL
- Tmax [1, 8]: 1 h
- AUC(0-t) at 24 h [1, 8]: 6.45 µg·h/mL
- mean prodrug concentration in brain ([1]; p.o. 10 mg/kg): BLQ

Compound: C[C@H](Cn1cnc2c(N)ncnc21)OCP(=O)(O)OCCCSCCCCCCCCCCCCc1ccc(F)cc1.N [16g]
- HepaRG t1/2 (HepaRG cells): 0.778 ± 0.005 h
- IC50 [2]: 0.008 to 0.012 µM
- TFV in brain tissue [1]: BLQ
- concentration at 1 h [1, 3]: 0.00324 µg/mL
- concentration at 4 h [1, 3]: 0.00574 µg/mL
- concentration at 1 h [1, 4]: 0.31 µg/mL
- concentration at 4 h [1, 4]: 0.602 µg/mL
- concentration at 24 h [1, 4]: 0.0254 µg/mL
- concentration at 1 h [1, 5]: 5.33 µg/mL
- concentration at 4 h [1, 5]: 4.81 µg/mL
- concentration at 24 h [1, 5]: 0.0248 µg/mL
- Cmax at 24 h [1, 6]: 0.00574 µg/mL
- AUC(0-t) at 24 h [1, 6]: 0.0135 µg·h/mL
- Cmax at 24 h [1, 7]: 0.602 µg/mL
- AUC(0-t) at 24 h [1, 7]: 7.65 µg·h/mL
- Cmax at 24 h [1, 8]: 5.33 µg/mL
- Tmax [1, 8]: 1 h
- AUC(0-t) at 24 h [1, 8]: 63.6 µg·h/mL
- mean prodrug concentration in brain ([1]; p.o. 10 mg/kg): BLQ

Compound: C[C@H](Cn1cnc2c(N)ncnc21)OCP(=O)(O)OCCCSCCCCCCCCCCCCC1CCCCC1.N [16h]
- HepaRG t1/2 (HepaRG cells): 1.18 ± 0.0067 h
- HepaRG Clint,u (HepaRG cells; calculated from cellular t1/2): 17.8 μL/min/million cells
- IC50 [2]: 0.008 to 0.012 µM
- CC50 (HEK293T cells): 47.5 ± 8.7 µM
- TFV in brain tissue [1]: BLQ
- concentration at 1 h [1, 3]: 0.0161 µg/mL
- concentration at 4 h [1, 3]: 0.00839 µg/mL
- concentration at 1 h [1, 4]: 0.279 µg/mL
- concentration at 4 h [1, 4]: 0.795 µg/mL
- concentration at 24 h [1, 4]: 0.123 µg/mL
- concentration at 1 h [1, 5]: 1.54 µg/mL
- concentration at 4 h [1, 5]: 2.15 µg/mL
- concentration at 24 h [1, 5]: 0.0324 µg/mL
- Cmax at 24 h [1, 6]: 0.0162 µg/mL
- Tmax at 24 h [1, 6]: 1 h
- AUC(0-t) at 24 h [1, 6]: 0.0368 µg·h/mL
- Cmax at 24 h [1, 7]: 0.795 µg/mL
- AUC(0-t) at 24 h [1, 7]: 10.8 µg·h/mL
- Cmax at 24 h [1, 8]: 2.15 µg/mL
- AUC(0-t) at 24 h [1, 8]: 27.3 µg·h/mL
- mean prodrug concentration in brain ([1]; p.o. 10 mg/kg): BLQ
